# From ChEMBL document CHEMBL3507680, “University of Dundee, Gates Library screen for HepG2 cell viability”
# Assay: Human HepG2 cell viability assay in 384 well format
# Assay type: toxicity, cell-based
# Set-up: dose 125 nL, time 70.5 hour; concentration not given beside the values
# Details: HepG2 cells, read-out: Inhibition
row,SMILES,cytotoxicity at 70.5 h [%]
1,COc1cccc(CN(C)C(=O)CN2CCN(CCO)CC2)c1,-7.48
2,CCOc1ccccc1C(CC(=O)Nc1ccccc1)NC(C)=O (stereo not drawn),-6.59
3,O=C([C@@H]1CCCO1)N1CCOCC2(CCN(Cc3cccnc3)C2)C1 (stereo partly drawn),0.333
4,CC(C(=O)NCc1cccc(N2CCCC2=O)c1)S(C)(=O)=O (stereo not drawn),0.0426
5,CSCc1noc(-c2nc3c([nH]2)CCCNC3=O)n1,-4.67
6,COCCN1CCN(Cc2ccc(C(C)=O)cc2)[C@H]2CS(=O)(=O)C[C@H]21,-5.05
7,CCOCCCNC(=O)c1cn(C(C)(C)C)c2ncccc12,20.9
8,COC(=O)c1ccoc1CN(C)CC(=O)NC1CCS(=O)(=O)C1 (stereo not drawn),3.53
9,O=C(COc1ccc2c(c1)OCC2O)NCc1ccco1 (stereo not drawn),-0.449
10,CC1=C(C(=O)N2CCOC(Cc3cccc(C(F)(F)F)c3)C2)OCCO1 (stereo not drawn),-6.57
11,CNC(=O)[C@H]1CO[C@H]2CCN(Cc3ccc4ccccc4n3)C[C@H]2C1,-0.28
12,O=C(NCc1nccn1CCc1ccccc1)NCC1CCC1,2.35
13,CC(Nc1cccc2c1OCCO2)C(=O)Nc1ccc(Cl)cc1 (stereo not drawn),2.81
14,O=S(=O)(CCCN1CCc2c(ncn2C2CC2)C1)c1ccccc1,1.18
15,CN(CCO)Cc1nnc(C2CCN(C(=O)C3CCOCC3)CC2)n1C,1.69
16,Cc1cccc(NC(=O)C(C)Nc2cccc(CN3CCOC3=O)c2)c1 (stereo not drawn),-7.24
17,Cc1cc(SCC(N)=O)nc(-c2ccc(F)cc2)n1,-9.61
18,CC(Cc1ccco1)NS(=O)(=O)N1CCCCC1 (stereo not drawn),-6.18
19,CCOCc1nnc(NCc2cccnc2)o1,-7.36
20,COc1ccc(C(=O)N2C[C@@H](NC(=O)N(C)C)[C@H](C(C)C)C2)c(OC)n1,-11.2
21,O=C([C@H]1C[C@H]2OCC[C@H]2N(C(=O)c2ccncc2)C1)N1CCCCO1,3.71
22,Cc1c(-c2ccccc2)nc2c(c(C)c(C)n2CCN(C)C)c1N,13.6
23,Cc1cnc(C(=O)N2CC(=O)N(c3ccccc3Cl)CC2C)cn1 (stereo not drawn),-6.52

row,SMILES,cytotoxicity at 70.5 h [%]
1,CN(C)c1nccc(N2CCO[C@H]3CN(Cc4nccn4C)C[C@H]32)n1,-0.595
2,CN1CCCC(c2cncc(-c3cccc(C(F)(F)F)c3)n2)C1 (stereo not drawn),-8.63
3,CCc1nc(C)c([C@H]2CN(C)C[C@@H]2C(=O)Nc2ccc3[nH]ncc3c2)[nH]1,-5.87
4,O=C1CN(C(=O)C2CCOC2)CCN1Cc1ccc(Cl)cc1 (stereo not drawn),23.8
5,Cc1n[nH]c(C2CN(C(=O)CCc3cscn3)CCO2)n1 (stereo not drawn),-1.63
6,CC(C)N(C)C[C@H]1C[C@@H]2CN(Cc3ccco3)C[C@@H]2O1,-1.96
7,Cc1ccc(CN2Cc3c(cnn3C)C(COCC3CC3)C2)s1 (stereo not drawn),35.1
8,COc1cc(N2C[C@@H]3COC[C@]3(COCc3cccc(C)n3)C2)ncn1,-0.577
9,CC1CN(c2ccc(CNC(=O)c3ccn(C)c(=O)c3)cn2)CCO1 (stereo not drawn),-8.78
10,O=C(Nc1cccnc1)[C@H]1C[C@H]2OCC[C@H]2N(Cc2ccc(F)cc2)C1,-10
11,Cc1ccc2c(c1)[C@@H](CC(=O)N1CCOCC1)CCO2,0.54
12,CCc1ccc(C2CC(=O)Nc3cc(NS(C)(=O)=O)ccc32)o1 (stereo not drawn),31.4
13,CN(CC(=O)NCc1cc2ccccc2o1)S(C)(=O)=O,-0.935
14,CN(C)C(=O)[C@H]1CC[C@@H]2[C@@H](CCN2Cc2ccccn2)O1,0.127
15,CN(Cc1ccco1)C(=O)CN1CCCC1c1cccs1 (stereo not drawn),24.6
16,CCC(C)N(Cc1cccnc1)C(=O)c1ccc(F)c(O)c1 (stereo not drawn),12.9
17,COc1ccccc1COCC(O)CN(C)c1ccc(C)cc1C (stereo not drawn),15.1
18,CCS(=O)(=O)N1CCN(C(C)(C)CO)CC1,-3.71
19,O=C(CN1CCCC(Cn2cncn2)C1)Nc1cccnc1 (stereo not drawn),0.545
20,O=C(c1c[nH]nn1)N1CCCC1C1CCCCC1 (stereo not drawn),-8.52
21,CC(C)c1nnc(NC(=O)Cc2ccc(F)cc2)[nH]1,-13.1
22,CS(=O)(=O)c1ccc(Cl)c(NC(=O)NCCC2=CCCCC2)c1,-8.84
23,Cc1cccc(OC(C)C(=O)NCC2(N(C)C)CCCC2)c1 (stereo not drawn),-8.19

row,SMILES,cytotoxicity at 70.5 h [%]
1,Cc1cc(N(C)Cc2ncc(-c3ccccc3C(=O)O)s2)ncn1,16.7
2,Cc1ccc(CN2C[C@@H]3CCCO[C@@H]3[C@H](N(C)Cc3ccco3)C2)o1,-9.18
3,COC(=O)C1CCCN1Cc1ccco1 (stereo not drawn),-8.41
4,CN(Cc1cn2c(n1)CN(C(=O)C1CCCO1)CC2)Cc1ccco1 (stereo not drawn),-3.64
5,O=S(=O)(c1ccc(F)cc1)N1CCCCC1c1cc[nH]n1 (stereo not drawn),-6.41
6,CN(C)CCCNC(=O)C1CC(=O)N(c2n[nH]c3cccc(F)c23)C1 (stereo not drawn),-26.2
7,O=C1CC(c2ccc3c(c2)OCO3)c2cnn(C3CCCC3)c2N1 (stereo not drawn),-15.7
8,CC[C@H]1CN(C(=O)C(C)(C)C)CC[C@H]1CC(=O)O,7.7
9,COCC1c2nnn(CC3CC3)c2CCN1C(=O)c1cccc(F)c1 (stereo not drawn),-6.77
10,CN(C)CCCNCCC(c1ccccc1)C1CCOC(C)(C)C1 (stereo not drawn),-3.41
11,Cn1cnnc1C1CCN(C(=O)CCOc2ccc(Cl)cc2)CC1,19.2
12,COc1cn(CC(N)=O)c(CSc2nccc(C)n2)cc1=O,23.4
13,CSc1ccc2c(C)cc(N[C@@H](C)CO)nc2c1,23.3
14,COCC(=O)N1CCC2(CC1)NC(=O)[C@H]1CN(C(=O)N(C)C)C[C@H]12,-7.64
15,CN(C)CCNC(=O)c1nc2c(o1)CN(c1ncccn1)C2,-3.63
16,CC(C)CCn1ccc(NC(=O)N2CCCC2C(C)(C)O)n1 (stereo not drawn),-6.63
17,CSCCC(NC(=O)c1ccccc1)C(=O)N(C)Cc1ccsc1 (stereo not drawn),-7
18,CC(C(=O)N(C)Cc1ccc(Br)o1)n1cncn1 (stereo not drawn),-1.04
19,COCCC(=O)N1CCc2c(CNc3ncccn3)cncc2C1,-1.53
20,Cc1cnc(NC(=O)N2CCC(N3CCCCC3=O)CC2)s1,-1.3
21,O=C1N(c2cccnc2)CCC12CCCN(Cc1ccoc1)C2 (stereo not drawn),-4.21
22,CC1CN(C)CCN1C(=O)c1ccc(-n2cnnc2)cc1 (stereo not drawn),-1.59
23,Cc1ccc2cccc(S(=O)(=O)N(C)CC3CCN(C)CC3)c2n1,-7.7

row,SMILES,cytotoxicity at 70.5 h [%]
1,COCCNC(=O)N1CCCC1COc1ccccc1 (stereo not drawn),-8.27
2,COCCCN1CC2(CCCN(c3ncnc4[nH]cnc34)C2)CCC1=O (stereo not drawn),-6.06
3,CCN1C(=O)C(c2ccccc2)CC12CCN(c1ncccn1)CC2 (stereo not drawn),-18.6
4,Cc1cnn(CC2CCCN2Cc2nnc(C3CC3)n2C)c1 (stereo not drawn),-8.67
5,O=C(c1ccncc1)N1CCN(c2ccc(F)cc2Cl)CC1,18.4
6,O=C(COC1CCCC1)N1CC[C@H]2OCC[C@@]2(COCC2CC2)C1,-3.35
7,CN(C)CC1CSCCCN1C(=O)c1ccc(-n2cccc2)cc1 (stereo not drawn),-4.81
8,CC(C)C(=O)Nc1ccc(C(O)Cn2nc(-c3cccs3)oc2=O)cc1 (stereo not drawn),28.2
9,CC(=O)N1CCN(C(=O)C(C)n2cncn2)CC1 (stereo not drawn),5.31
10,Cc1cnn(CC2CCCN2Cc2noc(CC(C)C)n2)c1 (stereo not drawn),-0.847
11,CS(=O)(=O)C1(C(=O)NC2CCc3nccn3C2)CCCC1 (stereo not drawn),-4.12
12,Cc1noc(C)c1-c1ccnc(C2CCN(S(=O)(=O)N(C)C)CC2)c1,-2.76
13,CSCC(=O)N1CCN(CC(O)C(C)(C)C)CC1 (stereo not drawn),-10.6
14,Cc1nc2ccnn2c(C)c1CCC(=O)N1CCN(C2CC2)CC1,15.8
15,CNC(=O)c1ccccc1-c1ccc(S(C)(=O)=O)cc1,-4.9
16,CC(C)(CCS(C)(=O)=O)CNC(=O)NC1CCCC1(C)C (stereo not drawn),-6.64
17,N#Cc1cnc2c(F)cc(F)cc2c1NC1CCN(CC(N)=O)CC1,-5.14
18,Cc1ccsc1C(=O)N1CCc2ncnc(NC(C)C)c2CC1,-7.7
19,CC1(c2ccccc2)CCCN(Cc2cncn2C2CC2)C1 (stereo not drawn),-8.21
20,CCC(C)(C)NC(=O)c1nnn(-c2cccc3c2CCN(C)C3)c1C,9.39
21,CCc1nc(CN2CCCC(N(C)Cc3cnc(C)cn3)C2)no1 (stereo not drawn),-71.2
22,CCN(CC)C(=O)Nc1cccc(Oc2ccccn2)c1,20.3
23,Cn1cc(CN2C[C@@H]3COC[C@]3(C(=O)N3CCCO3)C2)cn1,-1.04

row,SMILES,cytotoxicity at 70.5 h [%]
1,Cc1noc(CN(Cc2cccc(C#N)c2)Cc2cccs2)n1,0.497
2,COCc1nc(CNc2cc(C)on2)cs1,-3.59
3,Cc1nc(C2CCCN(C(=O)c3cccc(S(C)(=O)=O)c3)C2)no1 (stereo not drawn),-9.98
4,CN(CC1COc2ccccc2O1)C(=O)CCn1cncn1 (stereo not drawn),-9.47
5,N#CCCn1cnc2c(F)cc(Br)cc2c1=O,-3.98
6,CNC(=O)CS(=O)(=O)Cc1coc(-c2ccc(F)cc2)n1,-9.1
7,Cc1cccc(OC2CCN(C(=O)c3ccc4ncsc4c3)CC2)n1,0.229
8,CC(=O)c1ccc(F)cc1-c1cc(NCCO)nc2[nH]ccc12,-0.208
9,Cc1ccc(CNC(CN2CCN(C)CC2)c2ccccc2)cc1C (stereo not drawn),35.8
10,Cc1cc(CN(C)CCC(O)c2ccccc2)no1 (stereo not drawn),1.83
11,COC(=O)[C@@H]1CN(S(=O)(=O)c2ccccc2)CCN1S(C)(=O)=O,-7.6
12,COc1ccc(C(=O)N2CCCCC2c2nccs2)c(OC)c1 (stereo not drawn),-6.39
13,Cc1ccc(NC(=O)Nc2c[nH]c(=O)[nH]c2=O)c(Cl)c1,-8.13
14,Cn1cnc2c1CCN(CCCc1ccccc1)C2,-1.08
15,CSCCc1nc(-c2ccc3c(c2)OCO3)n(C)n1,-4.21
16,Cc1nnc(C2Cc3ccccc3CN2Cc2ncc(C(C)(C)C)o2)o1 (stereo not drawn),34.5
17,COCCc1ncc(CNC2(c3ccc(Cl)cc3Cl)CC2)cn1,-1.55
18,Cc1cccnc1CN1CCN(C(=O)c2cc(Cl)c[nH]c2=O)CC1,8.42
19,Cc1ncccc1Oc1ncnc(N2CCC(O)(CO)CC2)c1C,-6.21
20,CCC(O)CN1CCN(C(=O)c2ccn(-c3ccccc3)n2)CC1 (stereo not drawn),2.94
21,Fc1ccc(CN2CCCC(Cn3cncn3)C2)c2ncccc12 (stereo not drawn),-5.13
